Consider 41 molecules from ChEMBL document CHEMBL4418497, “Compositions and methods relating to inhibiting serine hyrdoxymethyltransferase 2 activity” (2016).

The target of one assay is T1, Serine hydroxymethyltransferase, mitochondrial (Homo sapiens) (UniProt P34897).
T1 sequence (whole entry): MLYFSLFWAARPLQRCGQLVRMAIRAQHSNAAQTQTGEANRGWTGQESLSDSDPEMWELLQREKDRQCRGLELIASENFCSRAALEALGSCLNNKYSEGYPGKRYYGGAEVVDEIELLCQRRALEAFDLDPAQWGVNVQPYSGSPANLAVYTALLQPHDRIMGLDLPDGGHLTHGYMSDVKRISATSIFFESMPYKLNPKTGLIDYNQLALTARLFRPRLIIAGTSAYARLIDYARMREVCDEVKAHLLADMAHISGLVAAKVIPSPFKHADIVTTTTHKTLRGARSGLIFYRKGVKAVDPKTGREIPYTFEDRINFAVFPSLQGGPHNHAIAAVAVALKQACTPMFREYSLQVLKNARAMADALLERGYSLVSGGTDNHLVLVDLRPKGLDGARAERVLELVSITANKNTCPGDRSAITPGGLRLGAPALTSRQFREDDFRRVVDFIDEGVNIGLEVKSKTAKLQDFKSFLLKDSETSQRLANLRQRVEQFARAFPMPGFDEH
As to the kind of experiment: Inhibition of His-tagged human recombinant SHMT2 expressed in Escherichia coli BLR(DE3) assessed as reduction in NADPH level using L-serine, THF and NADP+ at 6.5 or 26.5 uM incubated for 5 mins by SHMT2-MTHFD coupled reaction based fluorescence assay relative to control.
Conditions: not given
As a reminder, the inhibition is the relative decrease from the control value, in per cent. As to `CNCC[C@H](Oc1cccc2ccccc12)c1cccs1` [DULOXETINE], the inhibition amounted to 83.8%.

With `CC(=O)N[C@H]1CN2CC[C@H](O)[C@@H]2[C@@H](O)[C@@H]1O`, the inhibition amounted to 63.8%.

For `COC(=O)/C=C(/Nc1cc(OC)ccc1OC)C(=O)OC`, the inhibition was found to be 56.3%.

For `CCOC(=O)[C@H](CCc1ccccc1)N[C@H](C)C(=O)N1C2CCCCC2C[C@H]1CO` (some centres not stated), the inhibition stood at 53%.

`CCC(N)C(O)c1ccc(O)c(O)c1` (configuration not stated): the inhibition is 87%.

For `Cc1cc(/C=C/c2ccc3cc(N(C)C)ccc3[n+]2C)c(C)n1-c1ccccc1`, the inhibition came to 88.2%.

With `Cc1nc2c(OCc3ccccc3)cccn2c1CC#N`, the inhibition is 77.9%.

Consider `NC(=O)NC1NC(=O)NC1=O` (configuration not stated), for which the inhibition was found to be 58.2%.

As to `COc1cc(OC)c2c(c1Cl)OC1(C2=O)C(O)=CC(=O)CC1C` (configuration not stated), the inhibition came to 77.8%.

Turning to `COC(=O)CC1C(C)(C)C(OC(C)=O)[C@@H]2[C@@H](OC(C)=O)[C@]34O[C@@H]2[C@]1(C)C3CC[C@]1(C)C4=CC(=O)O[C@H]1c1ccoc1` (some centres not stated), the inhibition came out at 52.4%.

In the case of `CC(=O)[C@H]1CC[C@H]2[C@@H]3CCC4C[C@H](O)CC[C@]4(C)[C@H]3C[C@H](O)[C@]12C` (some centres not stated), the inhibition was determined as 71.6%.

`COC(=O)[C@@H]1[C@H]2C[C@H]3c4[nH]c5ccccc5c4CCN3C[C@@H]2CC[C@@H]1O`: the inhibition was found to be 57.4%.

Consider `COC(=O)[C@@H]1C(O)CC[C@H]2CN3CCc4c([nH]c5ccccc45)[C@@H]3C[C@@H]21` (some centres not stated), for which the inhibition is 73.9%.

With `CCNc1cc(N)[n+](CC)c2[nH]nc(/N=C/c3cc(Cl)cc(Cl)c3O)c12`, the inhibition is 97%.

For the molecule `CN1CCN(CCCN2c3ccccc3SC3C=CC(Cl)=CC32)CC1` (configuration not stated), the inhibition was found to be 61.6%.

As for `COC(=O)[C@@H](c1ccc2sccc2c1)c1ccccc1Cl`, the inhibition stood at 53.3%.

With `COc1cc(NC(C)CCCN)c2ncccc2c1` (configuration not stated) [PRIMAQUINE], the inhibition is 91.9%.

With `CCOC(=O)Nc1ccc(NCc2ccc(F)cc2)nc1N` [FLUPIRTINE], the inhibition amounted to 86.1%.

`COc1ccc(OC)c(NC(=S)N2CCN(c3ncc(C(F)(F)F)cc3Cl)CC2)c1`: the inhibition is 60.2%.

`O=C(Nc1cccc2c(=O)cc(-c3nnn[nH]3)oc12)c1ccc(OCCCCc2ccccc2)cc1`: the inhibition came out at 65.5%.

Consider `Oc1ccc2[nH]cc(C3=CCNCC3)c2n1`, for which the inhibition came to 73.2%.

For the molecule `Nc1nc(=O)c2nc(CNc3ccc(C(=O)N[C@@H](CCC(=O)O)C(=O)O)cc3)cnc2[nH]1`, the inhibition worked out at 53.6%.

Regarding `COc1ccc2c(c1O)-c1c(OC)c(OC)cc3c1C(C2)N(C)CC3` (configuration not stated), the inhibition came to 69.3%.

Regarding `CC(=O)C1CC[C@H]2C3CC[C@H]4C[C@H](O)CC[C@]4(C)C3CC[C@]12C` (some centres not stated), the inhibition worked out at 65.9%.

With `Fc1ccc(COc2ccc(-c3nnco3)cc2)cc1`, the inhibition is 53.7%.

For `CC(C)C[C@H](N(C)C)C1(c2ccc(Cl)cc2)CCC1`, the inhibition worked out at 62%.

As to `CNC(=O)Oc1ccc2c(c1)[C@]1(C)CCN(C)[C@@H]1N2`, the inhibition is 55.9%.

Take `CN(C)c1cc2c(Nc3ccc4c(cnn4Cc4ccccc4)c3)ncnc2cn1` [GW282974X]: the inhibition was found to be 77.5%.

Consider `CC(C)(C)C(=O)C(C#N)CNc1cccc2nsnc12` (configuration not stated), for which the inhibition came to 69.6%.

For `c1ccc2c(N3CCNCC3)cccc2c1`, the inhibition turned out to be 86.1%.

In the case of `Brc1c(NC2=NCCN2)ccc2nccnc12`, the inhibition stood at 79%.

On to `CC(C(=O)Nc1cccc(/N=C/c2c(O)ccc3ccccc23)c1)c1ccccc1` (configuration not stated), for which the inhibition turned out to be 60.1%.

Consider `COC(=O)[C@@H]1OC(=O)C2OC23[C@]2(C)[C@H](O)CC4C(C)(C)[C@H](OC(C)=O)C[C@H](OC(C)=O)[C@]4(C)[C@H]2CC[C@@]13C` (some centres not stated), for which the inhibition was found to be 81.8%.

As for `COc1ccc2cc1Oc1ccc(cc1)C[C@H]1c3c(cc4c(c3Oc3cc5c(cc3OC)CCN(C)[C@@H]5C2)OCO4)CCN1C`, the inhibition worked out at 70.4%.

With `C=C(C)[C@H]1CC=C(C(=O)O)CC1`, the inhibition amounted to 70%.

Consider `CS(=O)(=O)c1ccc2ccn(O)c2c1`, for which the inhibition is 60.3%.

`Cc1onc(-c2c(Cl)cccc2Cl)c1NC(=O)Nc1ccc(N(C)C)c(Cl)c1C#N`: the inhibition stood at 97.1%.

For `Nc1cc(-c2ccncc2)c[nH]c1=O`, the inhibition was 92.3%.

Regarding `Cc1cccc(C)c1NC(=O)[C@@H]1CCCCN1C`, the inhibition was 60.1%.

As to `COc1ccc(Cc2nccc3cc(OC)c(OC)cc23)cc1OC` [PAPAVERINE], the inhibition worked out at 59.2%.

As to `CN1CC[C@@]2(C)c3cc(OC(=O)Nc4ccccc4)ccc3N(C)[C@@H]12`, the inhibition was found to be 56.6%.

The next assay deals with T2, Serine hydroxymethyltransferase, mitochondrial (Homo sapiens, UniProt P34897).
T2 sequence (P34897 whole entry): T1 sequence (whole entry)
The experiment in a line: Inhibition of His-tagged human recombinant SHMT2 expressed in Escherichia coli BLR(DE3) assessed as reduction in NADPH level using L-serine, THF and NADP+ incubated for 5 mins by SHMT2-MTHFD coupled reaction based fluorescence assay. To be noted: read-out: pIC50 (converted).
On to `CNCC[C@H](Oc1cccc2ccccc12)c1cccs1` [DULOXETINE], for which the IC50 is 6920 nM.

`Cc1cc(/C=C/c2ccc3cc(N(C)C)ccc3[n+]2C)c(C)n1-c1ccccc1`: the IC50 was 2570 nM.

With `COc1cc(NC(C)CCCN)c2ncccc2c1` (configuration not stated) [PRIMAQUINE], the IC50 was 437 nM.

On to `CCOC(=O)Nc1ccc(NCc2ccc(F)cc2)nc1N` [FLUPIRTINE], for which the IC50 is 933 nM.

Take `CN(C)c1cc2c(Nc3ccc4c(cnn4Cc4ccccc4)c3)ncnc2cn1` [GW282974X]: the IC50 was 2450 nM.

Regarding `COc1ccc(Cc2nccc3cc(OC)c(OC)cc23)cc1OC` [PAPAVERINE], the IC50 was 2690 nM.
